pIC50: −log10 of the molar value.
What was measured:
Type in all cases: cell-based
NLRP3 [1] = biological target: T1, NLRP3 (Homo sapiens, UniProt Q96P20); assay: Human whole blood IL-1β release assay; set-up: Human whole blood in Li-heparin tubes was obtained from healthy donors; from tissue; host or cells: human whole blood from healthy donors; conditions: LPS 1 μg/ml, nigericin 10 μM, IL-1β by AlphaLisa
Experimental: Human whole blood in Li-heparin tubes was obtained from healthy donors from a volunteer donor panel. • 1. […] Incubate for 3 hours at 37° C., 5% CO2 • 4. Add 10 μl nigericin (Sigma #N7143) (10 μM FAC) to all wells • 5. Incubate for 1 hr at 37° C., 5% CO2 • 6. At the end of the incubation period, spin plates at 300 xg for 5 mins to pellet cells and remove 20 μl of supernatant and add to 96-well v-bottom plates for IL-1β analysis (note: these plates containing the supernatants can be stored at −80° C. to be analysed at a later date) • 7. IL-1β was measured according to the manufacturer protocol (Perkin Elmer-AlphaLisa IL-1 Kit AL220F-5000) • 8. IC50 data is fitted to a non-linear regression equation (log inhibitor vs response-variable slope 4-parameters)

NLRP3 [2] = biological target: T1, NLRP3; assay: THP-1 cells pyroptosis assay; set-up: Seed THP-1 cells (25,000 cells/well) containing 10 μg/ml LPS; host or cells: THP-1 cells; conditions: LPS primed, nigericin 5 μM, resazurin read-out
Experimental: Therefore, it is anticipated that inhibitors of NLRP3 will block pyroptosis, as well as the release of pro-inflammatory cytokines (e.g. IL-1B) from the cell.
On the day of the experiment, THP-1 cells were harvested and resuspended into RPMI medium (without FBS). The cells were then counted and viability (>90%) checked by Trypan blue (Sigma #T8154). […] To this diluted cell solution was added LPS (Sigma #L4524) to give a 1 μg/ml Final Assay Concentration (FAC). 40 μl of the final preparation was aliquoted into each well of a 96-well plate. The plate thus prepared was used for compound screening.
The following method step-by-step assay was followed for compound screening. • 1. […] Incubate for 3 hours at 37° C., 5% CO2 • 4. Add 5 μl nigericin (Sigma #N7143) (FAC 5 μM) to all wells • 5. Incubate for 1 hr at 37° C., 5% CO2 • 6. At the end of the incubation period, spin plates at 300 xg for 3 mins and remove supernatant • 7. […] IC50 data is fitted to a non-linear regression equation (log inhibitor vs response-variable slope 4-parameters)

[3] = biological target: T2, hERG cardiac potassium channel (Homo sapiens, UniProt Q12809); assay: hERG screening assay (automated patch clamp, CHO crelox hERG cells); conditions: whole-cell patch clamp at 35-37° C.
T2 construct: host or cells: CHO crelox hERG cell line (Chinese hamster)
Experimental: Ready-to-use frozen instant CHO-hERG cells were cryopreserved at Evotec (Germany) and used directly in the experiments.
The internal solution contains (in mM): KCl, 10; KF, 100; NaCl, 10; HEPES, 10; EGTA, 20; pH=7.0-7.4 with KOH, osmolarity 260-300 mOsm.
The effects of a compound on hERG K+-currents parameters will be evaluated at 2 concentrations in at least 4 cells.
K+ currents are measured with the patch-voltage-clamp technique in the whole-cell configuration at 35-37° C.
The amplitudes of IKhERG were recorded in each concentration of drug and they were compared to the vehicle control values (taken as 100%) to define fractional blocks. The concentration-response data were fitted with the following relationship:
Concentration-response curves were fitted by non-linear regression analysis using EworkBook suite (ID Business Solutions Ltd, UK). Data fit was done with the 4 Parameter Logistic Model (fit=(A+(B/(1+((x/C)^D)))), where A=0 and B=100).
In the drug development process of small molecules, one of the most frequent adverse side effects, leading to the failure of drugs, is the cardiac arrhythmias. Such failure is often related to the capacity of the drug to inhibit the human ether-à-go-go-related gene (hERG) cardiac potassium channel. Having no or low inhibition of the hERG cardiac potassium channel is therefore considered as beneficial.

T1 sequence (Q96P20 whole entry): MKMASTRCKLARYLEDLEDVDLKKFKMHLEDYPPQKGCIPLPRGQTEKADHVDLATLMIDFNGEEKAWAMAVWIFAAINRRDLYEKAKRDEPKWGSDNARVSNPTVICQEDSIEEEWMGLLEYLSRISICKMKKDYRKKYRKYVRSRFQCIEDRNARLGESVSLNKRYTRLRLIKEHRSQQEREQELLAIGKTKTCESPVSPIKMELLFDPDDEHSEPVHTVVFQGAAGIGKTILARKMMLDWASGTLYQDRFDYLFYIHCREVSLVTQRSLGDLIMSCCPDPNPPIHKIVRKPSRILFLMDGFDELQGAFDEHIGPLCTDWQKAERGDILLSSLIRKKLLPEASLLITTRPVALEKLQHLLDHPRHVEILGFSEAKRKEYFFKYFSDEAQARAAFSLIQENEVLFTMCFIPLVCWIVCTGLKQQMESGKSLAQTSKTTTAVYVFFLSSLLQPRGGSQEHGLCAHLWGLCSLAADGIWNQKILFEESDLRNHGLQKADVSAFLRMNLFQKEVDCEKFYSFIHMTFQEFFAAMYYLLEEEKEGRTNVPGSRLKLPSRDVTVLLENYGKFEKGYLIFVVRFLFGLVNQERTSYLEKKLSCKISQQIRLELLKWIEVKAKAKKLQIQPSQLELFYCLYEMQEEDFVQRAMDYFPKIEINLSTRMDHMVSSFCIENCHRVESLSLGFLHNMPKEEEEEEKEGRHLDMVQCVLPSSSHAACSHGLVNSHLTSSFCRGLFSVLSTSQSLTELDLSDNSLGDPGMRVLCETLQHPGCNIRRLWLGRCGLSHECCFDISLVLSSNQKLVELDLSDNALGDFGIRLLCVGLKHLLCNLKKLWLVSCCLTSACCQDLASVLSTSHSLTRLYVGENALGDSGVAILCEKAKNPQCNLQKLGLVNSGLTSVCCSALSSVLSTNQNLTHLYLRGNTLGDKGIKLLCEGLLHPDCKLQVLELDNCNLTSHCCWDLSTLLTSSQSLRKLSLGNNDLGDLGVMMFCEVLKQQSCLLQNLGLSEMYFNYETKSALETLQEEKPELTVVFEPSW
T2 sequence (Q12809 whole entry): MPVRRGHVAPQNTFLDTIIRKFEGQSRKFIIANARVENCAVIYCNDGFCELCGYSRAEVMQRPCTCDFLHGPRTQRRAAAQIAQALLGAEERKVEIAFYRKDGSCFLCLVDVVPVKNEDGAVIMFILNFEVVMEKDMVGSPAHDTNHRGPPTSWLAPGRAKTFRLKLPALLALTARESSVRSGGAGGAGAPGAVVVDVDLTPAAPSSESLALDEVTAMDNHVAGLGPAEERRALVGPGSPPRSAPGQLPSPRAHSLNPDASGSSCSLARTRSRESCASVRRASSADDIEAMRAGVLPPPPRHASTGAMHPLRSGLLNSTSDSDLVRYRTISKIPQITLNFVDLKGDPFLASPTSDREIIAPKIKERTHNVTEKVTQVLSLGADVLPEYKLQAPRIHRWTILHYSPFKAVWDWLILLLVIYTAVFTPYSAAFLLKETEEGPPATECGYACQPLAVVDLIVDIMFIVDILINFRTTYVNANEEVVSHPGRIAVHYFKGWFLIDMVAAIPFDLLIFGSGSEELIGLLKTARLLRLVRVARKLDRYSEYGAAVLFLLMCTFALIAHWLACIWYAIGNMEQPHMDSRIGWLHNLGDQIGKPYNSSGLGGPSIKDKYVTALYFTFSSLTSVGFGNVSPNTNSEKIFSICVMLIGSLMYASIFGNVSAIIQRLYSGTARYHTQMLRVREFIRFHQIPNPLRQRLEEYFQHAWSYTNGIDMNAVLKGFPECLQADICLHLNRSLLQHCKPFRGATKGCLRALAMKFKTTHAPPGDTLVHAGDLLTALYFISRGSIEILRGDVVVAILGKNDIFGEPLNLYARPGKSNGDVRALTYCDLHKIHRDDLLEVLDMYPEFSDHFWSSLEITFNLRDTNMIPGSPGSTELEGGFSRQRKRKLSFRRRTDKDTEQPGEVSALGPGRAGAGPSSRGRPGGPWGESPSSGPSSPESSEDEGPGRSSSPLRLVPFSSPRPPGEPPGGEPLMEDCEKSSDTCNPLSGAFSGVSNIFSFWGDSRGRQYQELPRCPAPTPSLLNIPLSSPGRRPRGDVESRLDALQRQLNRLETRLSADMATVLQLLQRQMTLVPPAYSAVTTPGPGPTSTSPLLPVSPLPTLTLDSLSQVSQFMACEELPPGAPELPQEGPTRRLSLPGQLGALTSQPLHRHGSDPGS

Structure (SMILES)	pIC50 (NLRP3 [1])	pIC50 (NLRP3 [2])	pIC50 [3]
CCN1CCC2CCN(c3ccc(-c4c(C)cc(C#N)cc4O)nn3)C2C1 (single isomer, unassigned) [Example 6A, 4-[6-[(3aS,7aR)-6-Ethyl-3,3a,4,5,7,7a-hexahydro-2H-pyrrolo[2,3-c]pyridin-1-yl]pyridazin-3-yl]-3-hydroxy-5-methyl-benzonitrile or 4-[6-[(3aR,7aS)-6-ethyl-3,3a,4,5,7,7a-hexahydro-2H-pyrrolo[2,3-c]pyridin-1-yl]pyridazin-3-yl]-3-hydroxy-5-methyl-benzonitrile]	7.83	8.41	
CCN1CCC2CCN(c3ccc(-c4c(C)cc(C#N)cc4O)nn3)C2C1 (single isomer, unassigned) [Example 6B, 4-[6-[(3aR,7aS)-6-Ethyl-3,3a,4,5,7,7a-hexahydro-2H-pyrrolo[2,3-c]pyridin-1-yl]pyridazin-3-yl]-3-hydroxy-5-methyl-benzonitrile or 4-[6-[(3aS,7aR)-6-ethyl-3,3a,4,5,7,7a-hexahydro-2H-pyrrolo[2,3-c]pyridin-1-yl]pyridazin-3-yl]-3-hydroxy-5-methyl-benzonitrile]		6.12	
CCN1CCC[C@@H](Nc2cc(C)c(-c3ccc(C#N)cc3O)nn2)C1 [Example 1, 4-[6-[[(3R)-1-Ethyl-3-piperidyl]amino]-4-methyl-pyridazin-3-yl]-3-hydroxy-benzonitrile; formic acid]	8.49	8.51	< 4.70
CCN1CCC[C@@H](Nc2cc(C(F)(F)F)c(-c3ccc(C#N)cc3O)nn2)C1 [Example 3, 4-[6-[[(3R)-1-Ethyl-3-piperidyl]amino]-4-(trifluoromethyl)pyridazin-3-yl]-3-hydroxy-benzonitrile]	7.29	7.14	
Cc1cc(N[C@H]2C[C@@](C)(O)C2)nnc1-c1ccc(C#N)cc1O [Example 4, 3-Hydroxy-4-[6-[(3-hydroxy-3-methyl-cyclobutyl)amino]-4-methyl-pyridazin-3-yl]benzonitrile]		6.08	
